What all share (assay type): in vivo
For assay [1], the system named is tobacco budworm (Heliothis virescens). In words: Insecticidal test for tobacco budworm (leaf-dip, cotton cotyledon discs). To be noted: dipped cotton cotyledon discs, 2nd instar larvae, 5 days, rating of % Control; for pest or weed control at 400 ppm: Heliothis virescens, 120 h, read-out: TBW, activity at 400 ppm against tobacco budworm. On the procedure: (§1) Insecticidal test for tobacco budworm (Heliothis virescens), beet armyworm (Spodoptera exigua), and cabbage looper (Trichoplusia ni).
(§2) To prepare test solution, the test compound was formulated at 400 ppm in 7.5 mL of 2 acetone: 1 tap water. 250 µL of the test solution was pipetted upon the surface of 8 mL of lepidopteran diet (modified Shorey) contained in each of five one-ounce plastic cups (one cup = 1 replication). […] After airdrying, the treated leaf discs were placed individually into one-ounce plastic cups. Each dried, treated cotton cotyledon disc was infested with a 2nd instar tobacco budworm larva, and each cabbage leaf disc was infested with a 2nd instar cabbage looper larva. Cups containing the treated substrates and larvae were capped and then held in a growth chamber at 25 °C, 50-55% RH, and 14 hr light: 10 hr dark for 5 days.

Assay [2] deals with beet armyworm (Spodoptera exigua). In words: Insecticidal test for beet armyworm (treated lepidopteran diet). To be noted: 2nd instar larvae, 5 days, rating of % Control; for pest or weed control at 400 ppm: Spodoptera exigua, 120 h, read-out: BAW, activity at 400 ppm against beet armyworm. How it is done:
as §1, §2

Assay [3] has as its system cabbage looper (Trichoplusia ni). In words: Insecticidal test for cabbage looper (leaf-dip, cabbage leaf discs). Conditions: dipped cabbage leaf discs, 2nd instar larvae, 5 days, rating of % Control; for pest or weed control at 400 ppm: Trichoplusia ni, foliar, 120 h, read-out: CL, activity at 400 ppm against cabbage looper. On the procedure:
as §1, §2

For assay [4], the system named is two-spotted spider mite (Tetranychus urticae). In words: Insecticidal test for two-spotted spider mite, ovicide method. To be noted: for pest or weed control: Tetranychus urticae, read-out: SM, activity against two-spotted spider mite. How it is done:
Insecticidal test for two-spotted spider mite (Tetranychus urticae)
Ten adult female two-spotted spider mites were placed on eight 2.2 cm leaf discs of cotton leaf, allowed to oviposit over 24 hours, and thereafter removed. […] Discs were placed on an agar substrate and held at 24 °C and 90% RH for 6 days.

The mark [5] stands for this setting: foliar, 144 h, ovicide method, cotton leaf discs, 6 days, rating of % Control.

Turning to `Cc1ccc(-c2ccc([C@@H]3N=C(c4c(F)cccc4F)O[C@@H]3C)cc2)cc1` (mixture of isomers) [Compound 9, (4S,5R)- and (4R,5S)-2-(2,6-difluorophenyl)-5-methyl-4-(4'-methyl-1,1'-biphenyl-4-yl)-4,5-dihydro-1,3-oxazole], the pest or weed control at 400 ppm in assay [1] is less than 50%; in assay [2], 90 to 100%; in assay [3] it was 90 to 100%.

In the case of `C[C@H]1OC(c2c(F)cccc2F)=N[C@H]1c1ccc(-c2ccc(Cl)cc2)cc1` (mixture of isomers) [Compound 10, (4S,5R)- and (4R,5S)-4-(4'-chloro-1,1'-biphenyl-4-yl)-2-(2,6-difluorophenyl)-5-methyl-4,5-dihydro-1,3-oxazole], the pest or weed control at 400 ppm in assay [1], in assay [2] and in assay [3] was 90 to 100% in each case.

Turning to `C[C@H]1OC(c2c(F)cccc2F)=N[C@H]1c1ccc(-c2cccc(C(F)(F)F)c2)cc1` (mixture of isomers) [Compound 11, (4S,5R)- and (4R,5S)-2-(2,6-difluorophenyl)-5-methyl-4-[3'-(trifluoromethyl)-1,1'-biphenyl-4-yl]-4,5-dihydro-1,3-oxazole], the values for the pest or weed control at 400 ppm in assay [1], in assay [2] and in assay [3] were 80 to 89%, 90 to 100% and 90 to 100%, respectively.

As to `C[C@@H]1OC(c2c(F)cccc2F)=N[C@@H]1c1ccc(-c2ccc3c(c2)OC(F)(F)O3)cc1` (mixture of isomers) [Compound 13, (4R,5S)- and (4S,5R)-4-[4-(2,2-difluoro-1,3-benzodioxol-5-yl)phenyl]-2-(2,6-difluorophenyl)-5-methyl-4,5-dihydro-1,3-oxazole], the pest or weed control at 400 ppm is less than 50% in assay [1] and 90 to 100% in assay [3].

Take `C[C@@H]1OC(c2c(F)cccc2F)=N[C@@H]1c1ccc(-c2ccc(C(F)(F)F)cc2F)cc1` (mixture of isomers) [Compound 16, (4R,5S)- and (4S,5R)-2-(2,6-difluorophenyl)-4-[2'-fluoro-4'-(trifluoromethyl)-1,1'-biphenyl-4-yl]-5-methyl-4,5-dihydro-1,3-oxazole]: the pest or weed control at 400 ppm in assay [1], in assay [2] and in assay [3] was 90 to 100% in each case.

For the compound `C[C@@H]1OC(c2c(F)cccc2F)=N[C@H]1c1ccc(-c2ccc(F)cc2)cc1` (mixture of isomers) [Compound 25, (4S,5S)- and (4R,5R)-2-(2,6-difluorophenyl)-4-(4'-fluoro-1,1'-biphenyl-4-yl)-5-methyl-4,5-dihydro-1,3-oxazole], the pest or weed control at 400 ppm in assay [1], in assay [2] and in assay [3] was 90 to 100% each time. Also, in assay [4] (setting [5]), the pest or weed control lay within 90 to 100%.

Consider `C[C@@H]1OC(c2c(F)cccc2F)=N[C@H]1c1ccc(-c2ccc(C(F)(F)F)cc2)cc1` (mixture of isomers) [Compound 26, (4S,5S)- and (4R,5R)-2-(2,6-difluorophenyl)-5-methyl-4-[4'-(trifluoromethyl)-1,1'-biphenyl-4-yl]-4,5-dihydro-1,3-oxazole], for which the pest or weed control at 400 ppm in assay [1], in assay [2] and in assay [3] was 90 to 100% each time. Moreover, the pest or weed control in assay [4] (setting [5]) lay within 90 to 100%.

Regarding `C[C@@H]1OC(c2c(F)cccc2F)=N[C@H]1c1ccc(-c2cccc(C(F)(F)F)c2)cc1` (mixture of isomers) [Compound 28, (4S,5S)- and (4R,5R)-2-(2,6-difluorophenyl)-5-methyl-4-[3'-(trifluoromethyl)-1,1'-biphenyl-4-yl]-4,5-dihydro-1,3-oxazole], the pest or weed control at 400 ppm in assay [1], in assay [2] and in assay [3] was 90 to 100% each time. Moreover, the pest or weed control in assay [4] (setting [5]) was 90 to 100%.

For `Cc1ccc(-c2ccc([C@@H]3N=C(c4c(F)cccc4F)O[C@H]3C)cc2)cc1C` (mixture of isomers) [Compound 29, (4S,5S)- and (4R,5R)-2-(2,6-difluorophenyl)-4-(3',4'-dimethyl-1,1'-biphenyl-4-yl)-5-methyl-4,5-dihydro-1,3-oxazole], the pest or weed control at 400 ppm in assay [1] is less than 50%; in assay [2], 60 to 69%; in assay [3], 90 to 100%.

In the case of `C[C@@H]1OC(c2c(F)cccc2F)=N[C@H]1c1ccc(-c2ccccc2F)cc1` (mixture of isomers) [Compound 31, (4S,5S)- and (4R,5R)-2-(2,6-difluorophenyl)-4-(2'-fluoro-1,1'-biphenyl-4-yl)-5-methyl-4,5-dihydro-1,3-oxazole], the values for the pest or weed control at 400 ppm in assay [1], in assay [2] and in assay [3] were less than 50%, less than 50% and 90 to 100%, respectively. Further, the pest or weed control in assay [4] (setting [5]) fell in the range of 90 to 100%.

For `C[C@@H]1OC(c2c(F)cccc2F)=N[C@H]1c1ccc(-c2ccc3c(c2)OC(F)(F)O3)cc1` (mixture of isomers) [Compound 34, (4S,5S)- and (4R,5R)-4-[4-(2,2-difluoro-1,3-benzodioxol-5-yl)phenyl]-2-(2,6-difluorophenyl)-5-methyl-4,5-dihydro-1,3-oxazole], the figures for the pest or weed control at 400 ppm in assay [1] and in assay [3] were less than 50% and 90 to 100%, respectively.

`Cc1ccc(-c2ccc([C@@H]3N=C(c4c(F)cccc4F)O[C@H]3C)cc2)cc1` (mixture of isomers) [Compound 36, (4S,5S)- and (4R,5R)-2-(2,6-difluorophenyl)-5-methyl-4-(4'-methyl-1,1'-biphenyl-4-yl)-4,5-dihydro-1,3-oxazole]: the pest or weed control at 400 ppm in assay [1] is less than 50%; in assay [2], less than 50%; in assay [3], 90 to 100%.

As to `C[C@@H]1OC(c2c(F)cccc2F)=N[C@H]1c1ccc(-c2ccc(Cl)cc2)cc1` (mixture of isomers) [Compound 37, (4S,5S)- and (4R,5R)-4-(4'-chloro-1,1'-biphenyl-4-yl)-2-(2,6-difluorophenyl)-5-methyl-4,5-dihydro-1,3-oxazole], the pest or weed control at 400 ppm in assay [1], in assay [2] and in assay [3] was 90 to 100% in each case.

Regarding `Cc1cc(Br)ccc1[C@@H]1N=C(c2c(F)cccc2F)O[C@H]1C` (mixture of isomers) [Compound 42, (4S,5S)- and (4R,5R)-4-(4-bromo-2-methylphenyl)-2-(2,6-difluorophenyl)-5-methyl-4,5dihydro-1,3-oxazole], in assay [1], the pest or weed control at 400 ppm was less than 50%.

For the compound `C[C@@H]1OC(c2c(F)cccc2F)=N[C@@H]1c1ccc(-c2ccc(C(F)(F)F)cc2)cc1` (racemic) [Compound 5, (4R,5S)- and 4S,5R)-2-(2,6-difluorophenyl)-5-methyl-4-(4'-(trifluoromethyl)-1,1'-biphenyl-4-yl]-4,5-dihvdro-1,3-oxazole], the “BAW, activity at 400 ppm against beet armyworm” value (“BAW, activity at 400 ppm” below) in assay [2] is “A (90-100)”. Besides, the “SM, activity at 2.5 ppm against two-spotted spider mite” value (“SM, activity at 2.5 ppm” below) in assay [4] (foliar, 144 h) is “A (90-100)”. In addition, the “CL, activity at 400 ppm against cabbage looper” value (shortened to “CL, activity at 400 ppm”) in assay [3] was “A (90-100)”.

On to `CCOc1ccc(-c2ccc([C@H]3N=C(c4c(F)cccc4F)O[C@H]3C)cc2)cc1` (racemic) [Compound 12, (4R,5S)- and (4S,5R)-2-(2,6-difluorophenyl)-4-(4'-ethoxy-1,1'-bphenyl-4-yl)-5-methyl-4,5-dihydro-1,3-oxazole], for which, in assay [1], the “TBW, activity at 400 ppm against tobacco budworm” value (shortened to “TBW, activity at 400 ppm”) is given as “B (80-89)”. The “BAW, activity at 400 ppm” value in assay [2] was “A (90-100)”. The “CL, activity at 400 ppm” value in assay [3] is recorded as “A (90-100)”.

For `C[C@@H]1OC(c2c(F)cccc2F)=N[C@@H]1c1ccc(-c2ccccc2F)cc1` (racemic) [Compound 15, (4R,5S)- and (4S,5R)-2-(2,6-difluorophenyl)-4-2'-fluoro-1,1'-biphenyl-4-yl)-5-methyl-4,5-dihydro-1,3-oxazole], in assay [3], the “CL, activity at 400 ppm” value is “A (90-100)”.

With `C[C@@H]1OC(c2c(F)cccc2F)=N[C@H]1c1ccc(-c2ccc(OC(F)(F)F)cc2)cc1` [Compound 47], the “BAW, activity at 400 ppm” value in assay [2] is “A (90-100)”. Also, the “SM, activity at 2.5 ppm” value in assay [4] (foliar, 144 h) is “A (90-100)”. Besides, the “CL, activity at 400 ppm” value in assay [3] is “A (90-100)”.

For the compound “(4R,5R)- and (4S,5S)-4-(4-bromophenyl)-2-(2-chloro-6-fluorophenyl)-5-methyl-4,5-dihydro-1,3-oxazole [Compound 23]”, the “TBW, activity at 400 ppm” value in assay [1] is given as “B (80-89)”. For the same compound, the “SM, activity at 2.5 ppm” value in assay [4] (ovicide method, cotton leaf discs, 6 days, rating of % Control) is given as “A (90-100)”. Besides, the “CL, activity at 400 ppm” value in assay [3] is given as “F (less than 50)”.

In the case of “(4R,5R)- and (4S,5S)-4-phenyl-2-(2,6-difluorophenyl)-5-methyl-4,5-dihydro-1,3-oxazole [Compound 35]”, the “TBW, activity at 400 ppm” value in assay [1] is reported as “F (less than 50)”. Further, in assay [3], the “CL, activity at 400 ppm” value is “F (less than 50)”.

The record behind these values is patent EP1397353B1, “2-(2,6-DISUBSTITUTED PHENYL)-4-ARYL-5-ALKYL-1,3-OXAZOLINE COMPOUNDS USEFUL AS INSECTICIDES AND ACARICIDES” (Dow AgroSciences LLC, priority 2001, dated 2003).
